This note sets out measurements from the SangsterLogP compilation.

Broadly, the logP is a log measure of how a compound divides between an organic and an aqueous phase. A high value points to higher lipophilicity. One may read the logD as the decadic logarithm of the distribution of all forms, ionised or not, between an organic phase and buffer at a given pH. Low readings indicate a more hydrophilic compound, high ones a more lipophilic compound.

One data set in a line: method code SF-AS, from DOI: 10.1016/0048-3575(79)90081-6.
Details: not given
`Cc1cccc(N2C(=O)CCC2=O)c1` displayed a logP of 0.57. Regarding `O=C1CCC(=O)N1c1cccc([N+](=O)[O-])c1`, the logP came out at 0.38. `O=C1CCC(=O)N1c1ccc(Cl)cc1` came in with a logP of 0.96.

As to `Cc1ccccc1N1C(=O)CCC1=O`, the logP is 0.29. Compound `O=C1CCC(=O)N1c1ccccc1` displayed a logP of 0.06. `CCc1ccccc1N1C(=O)CCC1=O`: the logP is 0.64. The same measure, in the same setting: as for `O=C1CCC(=O)N1c1ccccc1F`, the figure is 0.22; as for `O=C1CCC(=O)N1c1ccccc1I`, 0.8. On the same count and under the same terms, as for `Cc1ccc(N2C(=O)CCC2=O)cc1`, the figure is 0.58.

Regarding `O=C1CCC(=O)N1c1cccc(F)c1`, the logP worked out at 0.38.

For the compound `CCc1ccc(N2C(=O)CCC2=O)cc1`, the logP was 1.1.

In the case of `O=C1CCC(=O)N1c1ccccc1[N+](=O)[O-]`, the logP came to 0.36. The same measure, in the same setting: in the case of `O=C1CCC(=O)N1c1ccccc1Br` it was 0.65. The compound `O=C1CCC(=O)N1c1ccc(Br)cc1` yielded a logP of 1.18.

In turn, `O=C1CCC(=O)N1c1ccccc1C(F)(F)F` had a logP of 0.76.

On to `COc1ccccc1N1C(=O)CCC1=O`, for which the logP was -0.02. Consider `O=C1CCC(=O)N1c1ccc(F)cc1`, for which the logP came out at 0.29. The same measure, in the same setting: as for `N#Cc1cccc(N2C(=O)CCC2=O)c1`, the figure is 0.02; as for `O=C1CCC(=O)N1c1cccc(Br)c1`, 1.09. On the same count and under the same terms, as for `O=C1CCC(=O)N1c1ccccc1Cl`, the figure is 0.56; as for `O=C1CCC(=O)N1c1ccc([N+](=O)[O-])cc1`, 0.46. Same read-out and setting: in the case of `CCc1cccc(N2C(=O)CCC2=O)c1` it was 1.04; in that of `O=C1CCC(=O)N1c1cccc(Cl)c1`, 0.98; in that of `COC(=O)c1cccc(N2C(=O)CCC2=O)c1`, 0.36.

Still in this data set, the particulars now being: pH 7.4.
In the case of `O=C1CCC(=O)N1c1cccc(I)c1`, the logD worked out at 1.39.
